Reference: patent publication US4739067A, “4-(1,2,5,6-tetrahydro-1-alkyl-3-pyridinyl)-2-thiazolamines and 4-(hexahydro-1-alkyl-3-pyridinyl)-2-thiazolamines” (priority 1986, dated 1988)
Read-outs that look alike come from different tables or passages of the source.

How the values were obtained:
Haloperidol Receptor = target: T1, Haloperidol Receptor (Bos taurus, UniProt P20288); experiment: Haloperidol Receptor Binding (dopaminergic agents); conditions: read-out: % Inhibition (Haloperidol Receptor Binding)
T1 construct: from tissue
From the text: The method for determining the effectiveness of the compounds of the instant invention as dopaminergic agents is explained in Mol. Pharmacol., 1976 (12) 800 herein incorporated by reference.

[1] = test system: Locomotor Activity in Mouse; experiment: Inhibition of Locomotor Activity in Mouse (Mouse Activity and Screen Test Procedure); format: in vivo; conditions: read-out: ED50, Inhibition of Locomotor Activity in Mouse
From the text: The effects of representative compounds of the present invention as antipsychotic agents was established by the Mouse Activity and Screen Test Procedure described in Pharmacol. Biochem. Behav. 1978 (8) 97, herein incorporated by reference.
Inhibition of Locomotor Activity in Mouse

[2] = test system: Spontaneous Hypertensive Rat; experiment: Antihypertensive action, Spontaneous Hypertensive Rat; format: in vivo; conditions: 30 mg/kg, PO
Experimental: The methodology for testing the antihypertensive action of the compounds of the invention is described in Am. J. Med. Sci., 1970 (259)257, herein incorporated by reference. These experiments are considered standard tests in mammals and are indicative of utility for treatment of similar diseases in humans.
Spontaneous Hypertensive Rat (30 mg/kg, PO)

T1 sequence (P20288 whole entry): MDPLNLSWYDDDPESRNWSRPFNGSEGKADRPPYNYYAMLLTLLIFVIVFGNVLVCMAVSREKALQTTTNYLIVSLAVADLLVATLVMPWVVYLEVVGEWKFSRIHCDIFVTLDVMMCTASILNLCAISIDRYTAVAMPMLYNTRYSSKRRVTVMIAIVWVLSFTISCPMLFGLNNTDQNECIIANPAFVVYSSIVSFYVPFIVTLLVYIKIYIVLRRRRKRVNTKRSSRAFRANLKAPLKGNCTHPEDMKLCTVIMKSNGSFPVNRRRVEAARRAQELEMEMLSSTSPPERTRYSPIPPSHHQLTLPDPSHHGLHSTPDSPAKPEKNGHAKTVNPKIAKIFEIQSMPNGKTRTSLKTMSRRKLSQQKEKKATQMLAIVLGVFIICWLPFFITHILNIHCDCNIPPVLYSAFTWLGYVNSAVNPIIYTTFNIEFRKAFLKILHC

| Structure (SMILES) | inhibition at 1 µM (Haloperidol Receptor; at 10^-6 M) [%] | ED50 [1] [mg/kg] | further results |
| --- | --- | --- | --- |
| CC(C)CCN1CCC=C(c2csc(N)n2)C1 [4-[1,2,5,6-Tetrahydro-1-(3-methylbutyl)-3-pyridinyl]-2-thiazolamine] | 65 | 8.7 | – |
| CCOCCN1CCC=C(c2csc(N)n2)C1 [4-[1-(2-Ethoxyethyl)-1,2,5,6-tetrahydro-3-pyridinyl]-2-thiazolamine] | 35 | 30 | – |
| CCCN1CCC=C(c2csc(N)n2)C1 [III (double bond) R=R'=H; R"=(CH2)2 CH3, 4-(1,2,5,6-Tetrahydro-1-propyl-3-pyridinyl)-2-thiazolamine] | 66 | 2.9 | – |
| Nc1nc(C2=CCCN(CCc3ccccc3)C2)cs1 [III (double bond) R=R'=H; R"=(CH2)2 Ph, 4-[1,2,5,6-Tetrahydro-1-(2-phenylethyl)-3-pyridinyl]-2-thiazolamine] | – | 18.1 | inhibition at 1 µM (Haloperidol Receptor): 16% |
| CCCCN1CCC=C(c2csc(N)n2)C1 [III (double bond) R=R'=H; R"=(CH2)3 CH3, 4-(1,2,5,6-Tetrahydro-1-butyl-3-pyridinyl)-2-thiazolamine] | 57 | 7.3 | – |
| CCCCCN1CCC=C(c2csc(N)n2)C1 [III (double bond) R=R'=H; R"=(CH2)4 CH3, 4-(1,2,5,6-Tetrahydro-1-pentyl-3-pyridinyl)-2-thiazolamine] | 26 | < 10 | – |
| CCCCCCN1CCC=C(c2csc(N)n2)C1 [III (double bond) R=R'=H; R"=(CH2)5 CH3, 4-(1,2,5,6-Tetrahydro-1-hexyl-3-pyridinyl)-2-thiazolamine] | 88 | > 30 | – |
| CCCCCCCN1CCC=C(c2csc(N)n2)C1 [III (double bond) R=R'=H; R"=(CH2)6 CH3, 4-(1,2,5,6-Tetrahydro-1-heptyl-3-pyridinyl)-2-thiazolamine] | – | 10.4 | – |
| CCN1CCC=C(c2csc(N)n2)C1 [III (double bond) R=R'=H; R"=CH2 CH3, 4-(1,2,5,6-Tetrahydro-1-ethyl-3-pyridinyl)-2-thiazolamine] | 49 | > 30 | – |
| C=CCN1CCC=C(c2csc(N)n2)C1 [III (double bond) R=R'=H; R"=CH2 CH=CH2, 4-(1,2,5,6-Tetrahydro-1-allyl-3-pyridinyl)-2-thiazolamine] | 40 | 3 | – |
| CN1CCC=C(c2csc(N)n2)C1 [III (double bond) R=R'=H; R"=CH3, 4-(1,2,5,6-Tetrahydro-1-methyl-3-pyridinyl)-2-thiazolamine] | 50 | 30 | – |
| CCCN1CCCC(c2csc(N)n2)C1 (stereo not drawn) [III (single bond) R=R'=H; R"=(CH2)2 CH3, 4-(1-Propyl-3-piperidyl)-2-thiazolamine] | – | 10 | inhibition at 1 µM (Haloperidol Receptor): 15% |
| CCCN1CCC=C(c2csc(NC)n2)C1 [N-Methyl-4-(1,2,5,6-tetrahydro-1-propyl-3-pyridinyl)-2-thiazolamine] | – | 10 | – |
| CCCCCN1CCC=C(c2csc(NC(C)=O)n2)C1 [N-[4-(1,2,5,6-Tetrahydro-1-pentyl-3-pyridinyl)-2-thiazolyl]acetamide] | 0 | 10 | – |
| CCCN1CCC=C(c2csc(NC(C)=O)n2)C1 [N-[4-(1,2,5,6-Tetrahydro-1-propyl-3-pyridinyl)-2-thiazolyl]-acetamide] | 0 | 30 | – |
| CCCN1CCCC(c2csc(NC(C)=O)n2)C1 (stereo not drawn) [N-[4-(1-propyl-3-piperidyl)-2-thiazolyl]acetamide] | 9 | 30 | – |
| CCCCCN1CCC=C(c2csc(NC)n2)C1 [N-methyl-4-(1,2,5,6-tetrahydro-1-pentyl-3-pyridinyl)-2-thiazolamine] | – | < 10 | – |
| CCCCCN1CCC=C(c2csc(N(C)C(C)=O)n2)C1 [N-methyl-N-[4-(1,2,5,6-tetrahydro-1-pentyl-3-pyridinyl)-2-thiazolyl[-acetamide] | – | 6.4 | – |
| CCCN1CCC=C(c2csc(N(C)C(C)=O)n2)C1 [N-methyl-N-[4-(1,2,5,6-tetrahydro-1-propyl-3-pyridinyl)-2-thiazolyl]-acetamide] | – | 39 | – |
| CCCN1CCC=C(c2csc(N)n2)C1 [drawing 5] | – | – | Decrease in Blood Pressure ([2]; duration 1 hour): 20%; Decrease in Blood Pressure ([2]; duration up to 6 hours): 10-15%; Duration (of decrease in blood pressure) ([2]; of the 10-15% decrease): up to 6 hours; Duration (of decrease in blood pressure) ([2]; of the 20% decrease): 1 h |
| CC(C)CCN1CCC=C(c2csc(N)n2)C1 [drawing 6] | – | – | Decrease in Blood Pressure ([2]; duration up to 10 hours): 12-20%; Duration (of decrease in blood pressure) ([2]; of the 12-20% decrease): up to 10 hours |
